{
  "source": "patent US20070161691A1",
  "about": "“Modified-protein formation inhibitor” (TOKAI UNIVERSITY, priority 2003, published 2007)",
  "key": {"[1]": {"test_system": "middle cerebral artery ischemia-reperfusion model", "assay": "Cerebroprotective action in middle cerebral artery ischemia-reperfusion model", "format": "in vivo, rat", "conditions": "after reperfusion 22 hrs"}, "[2]": {"assay": "Suppressive effect on the hydroxylation of phenylalanine with hydroxy radical", "format": "biochemical", "conditions": "in comparison with pyridoxamine as positive control; 0.1, 0.5, 2.5 mM", "description": "Phenylalanine (final concentration: 1 mM), test compound (final concentration: 0.1, 0.5, 2.5 mM), hydrogen peroxide (final concentration: 5 mM) and cupric sulfate (final concentration: 0.1 mM) were dissolved in 200 mM of phosphate buffer (pH7.4) (total volume 500 μL), followed by incubation at 37° C. for 4 hours. Then, DTPA (final concent-ration: 1 mM) and 260 unit of catalase were added thereto to interrupt the reaction. The amounts of o-tyrosine and m-tyrosine formed were determined by HPLC in the following manner: after a designed period of time, the reaction mixture was diluted to 100 folds; 20 μL of the dilution was injected onto HPLC, separation was made with C18 column (4.6×250 mm, 5 μm; Nomura Kagaku) and detection was effected using a fluorescence detector (RF-10A: Shimazu Seisakusho) under the condition of an excitation wavelength of 275 nm and a fluorescence wavelength of 305 nm. In the mobile phase, the flow rate was 0.6mL/min and the concentration of buffer B was varied from 6.5% to 10% in 25 minutes (buffer A: 0.10% trifluoroacetic acid; buffer B: 80% acetonitrile containing 0.08% trifluoroacetic acid)."}, "[3]": {"assay": "Absorbability examination, oral administration to rat", "format": "in vivo", "conditions": "50 mg/kg oral", "description": "For 4-(5-phenyltetrazol-1-yl methyl)-morpholine (compound 1) and (5-phenyltetrazol-1-yl)methanol (compound 3), their sorbability were examined. Each compounds are suspended in carboxymethyl cellulose in given concentration to prepare sample for oral administration. Then each samples were administered in the ratio of 50 mg/kg to rat using sonde. Five Wister rats (male, 8 weeks aged, closed colony) were used every one group. At one hour, 2 hours, 6 hours and 24 hours after the administration of compound, blood was obtained. The obtained blood samples were immediately cetrifuged at 3000 rpm for 15 minutes to obtain the blood plasma and the concentration of the compound in the specimen was quantitated by HPLC. Briefly, to 100 μL of obtained blood plasma was added to 200 μL of acetonitrile, centrifuged at 12000 rpm for 10 minutes to obtain supernatant, deproteinized and served to HPLC. The measuring condition of HPLC was selected from suitable condition for each compounds to separate and quantify. For example, in case of 4-(5-phenyltetrazol-1-yl methyl)-morpholine (compound 1), separated with reverse-phase C18 column (4.6×250 mm, 5 μm: Waters), and then detected using ultraviolet detector (RF-10A: Shimazu Seisakusho) at 240 nm of wavelength to quantify. In mobile phase, the flow rate is 0.8 mL/min and solvent is water: acetonitrile."}},
  "data": [
    {"smiles": "c1ccc(-c2nnnn2CN2CCOCC2)cc1", "note": "[Compound 1, 4-(5-phenyltetrazol-1-ylmethyl)-morpholine]", "values": [
      {"measurement": "Nervous condition estimation test, Ave (Bederson grade)", "setting": "[1]", "result": 1.8},
      {"measurement": "hydroxylation of phenylalanine with hydroxy radical, suppression", "setting": "[2]", "result": "suppressed remarkably"},
      {"measurement": "sorbability (plasma concentration after oral administration)", "setting": "[3]", "result": "good sorbability"}
    ]}
  ]
}
